Measurements taken from patent US20130172378A1, “Combination of BRAF and VEGF Inhibitors” (GlaxoSmithKline LLC, priority 2010, published 2013).

What was measured:
Assay type in all cases: in vivo, CD-1 nude mice
[1] = system: A375P F11s tumor xenografts (human melanoma, BRAF V600E); experiment: A375P F11s melanoma tumor xenograft efficacy in nude mice
[2] = system: A375P F11s tumor xenografts (human melanoma, BRAF V600E); experiment: as above; remark: listed apart in the source
Protocol: (§1) Female CD-1 nude mice of 6-8 weeks in age were used in these studies; all mice were obtained from Charles River Laboratories (Wilmington, Del.). Animals were housed in pathogen free conditions and handled with aseptic technique.
The A375P F11s cell lines were grown in RPMI growth medium supplemented with 10% fetal bovine serum (FBS), 1% sodium pyruvate and 1% penicillin-streptomycin in a humidified 37° C. chamber with 5% CO2. Cells were expanded to obtain the large numbers of cells required for each injection; cells were grown in log phase, without reaching confluency and passaged regularly.
Detached cells were collected, centrifuged (1500 rpm, 5 min, 4° C.) and rinsed to remove the trypsin solution. Cells were re-suspended in PBS without magnesium or calcium and counted.
Compounds were administered in vehicles as described below.
(§2) Mice with similar sized tumors (100-300 mm^3) were identified. The length and width of the tumors were measured by handheld calipers and body weights of the mice were measured using a bench top weighing scale. Tumor volumes were calculated based on the following formula: tumor volume=(Length×Width^2)/2. Mice were block randomized into the required number of dosing groups (n=8 mice/group). The randomization process ensured that the average tumor volume for each dosing group was approximately equal at the beginning of the study and mice with differing tumor volumes were evenly distributed. Mice were placed in groups of eight accordingly and dosed with either vehicle or compound for 36 days either once or twice daily, as summarised in the table below. Mice were weighed and tumors measured twice weekly for the duration of the study using Studylog animal study management software (Studylog Systems, Inc., South San Francisco, Calif., USA).
Tumor volumes were calculated based on the following formula: tumor volume=(Length×Width^2)/2. Tumor growth curves were created from the mean±standard error of the mean, with n=8 animals per group. The percentage of tumor growth inhibition was calculated on the final day of dosing using the following formula: 1−(tumor volume in drug-treated population/tumor volume in vehicle-treated control population).

[3] = Body weight of nude mice bearing A375P F11s xenografts during treatment; conditions: in g (unit assumed)
Protocol: as §1, §2

[4] = group 3: Compound B 10 mg/kg PO QD, study day 0
[5] = group 3: Compound B 10 mg/kg PO QD, study day 3
[6] = group 3: Compound B 10 mg/kg PO QD, study day 7
[7] = group 3: Compound B 10 mg/kg PO QD, study day 9
[8] = group 3: Compound B 10 mg/kg PO QD, study day 15
[9] = group 3: Compound B 10 mg/kg PO QD, study day 18
[10] = group 3: Compound B 10 mg/kg PO QD, study day 22
[11] = group 3: Compound B 10 mg/kg PO QD, study day 25
[12] = group 3: Compound B 10 mg/kg PO QD, study day 28
[13] = group 3: Compound B 10 mg/kg PO QD, study day 31
[14] = group 4: Compound B 30 mg/kg PO QD, study day 0
[15] = group 4: Compound B 30 mg/kg PO QD, study day 3
[16] = group 4: Compound B 30 mg/kg PO QD, study day 7
[17] = group 4: Compound B 30 mg/kg PO QD, study day 9
[18] = group 4: Compound B 30 mg/kg PO QD, study day 15
[19] = group 4: Compound B 30 mg/kg PO QD, study day 18
[20] = group 4: Compound B 30 mg/kg PO QD, study day 22
[21] = group 4: Compound B 30 mg/kg PO QD, study day 25
[22] = group 4: Compound B 30 mg/kg PO QD, study day 28
[23] = group 4: Compound B 30 mg/kg PO QD, study day 31
[24] = group 4: Compound B 30 mg/kg PO QD, study day 37
[25] = group 4: Compound B 30 mg/kg PO QD, study day 35

Compound: CC(C)(C)c1nc(-c2cccc(NS(=O)(=O)c3c(F)cccc3F)c2F)c(-c2ccnc(N)n2)s1 [Compound B, N-{3-[5-(2-Amino-4-pyrimidinyl)-2-(1,1-dimethylethyl)-1,3-thiazol-4-yl]-2-fluorophenyl}-2,6-difluorobenzenesulfonamide]
- Mean A375P F11s tumor volume [1, 4]: 178.5 mm^3
- Percent Inhibition of A375P F11s tumor volume compared to vehicle treated mice [1, 4]: −3.6%
- Mean A375P F11s tumor volume [1, 5]: 164.5 mm^3
- Percent Inhibition of A375P F11s tumor volume compared to vehicle treated mice [1, 5]: 34.3%
- Percent Inhibition of A375P F11s tumor volume compared to vehicle treated mice [1, 6]: 39.0%
- Mean A375P F11s tumor volume [1, 7]: 247.5 mm^3
- Percent Inhibition of A375P F11s tumor volume compared to vehicle treated mice [1, 7]: 36.6%
- Mean A375P F11s tumor volume [1, 8]: 350.4 mm^3
- Percent Inhibition of A375P F11s tumor volume compared to vehicle treated mice [1, 8]: 45.3%
- Mean A375P F11s tumor volume [1, 9]: 469.7 mm^3
- Percent Inhibition of A375P F11s tumor volume compared to vehicle treated mice [1, 9]: 35.4%
- Mean A375P F11s tumor volume [1, 10]: 494.2 mm^3
- Percent Inhibition of A375P F11s tumor volume compared to vehicle treated mice [1, 10]: 47.2%
- Mean A375P F11s tumor volume [1, 11]: 581.5 mm^3
- Percent Inhibition of A375P F11s tumor volume compared to vehicle treated mice [1, 11]: 46.6%
- Mean A375P F11s tumor volume [1, 12]: 682.0 mm^3
- Percent Inhibition of A375P F11s tumor volume compared to vehicle treated mice [1, 12]: 45.6%
- Mean A375P F11s tumor volume [1, 13]: 830.5 mm^3
- Mean A375P F11s tumor volume ([1]; group 3: Compound B 10 mg/kg PO QD, study day 35): 1,105.5 mm^3
- Mean A375P F11s tumor volume [1, 14]: 156.9 mm^3
- Percent Inhibition of A375P F11s tumor volume compared to vehicle treated mice [1, 14]: 8.9%
- Percent Inhibition of A375P F11s tumor volume compared to vehicle treated mice [1, 15]: 42.4%
- Mean A375P F11s tumor volume [1, 16]: 104.1 mm^3
- Percent Inhibition of A375P F11s tumor volume compared to vehicle treated mice [1, 16]: 66.5%
- Percent Inhibition of A375P F11s tumor volume compared to vehicle treated mice [1, 17]: 74.5%
- Mean A375P F11s tumor volume [1, 18]: 94.0 mm^3
- Percent Inhibition of A375P F11s tumor volume compared to vehicle treated mice [1, 18]: 85.3%
- Mean A375P F11s tumor volume [1, 19]: 104.4 mm^3
- Percent Inhibition of A375P F11s tumor volume compared to vehicle treated mice [1, 19]: 85.6%
- Percent Inhibition of A375P F11s tumor volume compared to vehicle treated mice [1, 20]: 87.6%
- Percent Inhibition of A375P F11s tumor volume compared to vehicle treated mice [1, 21]: 87.0%
- Mean A375P F11s tumor volume [1, 22]: 148.7 mm^3
- Percent Inhibition of A375P F11s tumor volume compared to vehicle treated mice [1, 22]: 88.1%
- Mean A375P F11s tumor volume [1, 23]: 166.1 mm^3
- Mean A375P F11s tumor volume [1, 24]: 207.6 mm^3
- Mean A375P F11s tumor volume [2, 6]: 189.5 mm^3
- Mean A375P F11s tumor volume [2, 15]: 144.2 mm^3
- Mean A375P F11s tumor volume [2, 17]: 99.5 mm^3
- Mean A375P F11s tumor volume [2, 20]: 116.4 mm^3
- Mean A375P F11s tumor volume [2, 21]: 142.1 mm^3
- Mean A375P F11s tumor volume [2, 25]: 168.1 mm^3
- Mean body weight of nude mice [3, 4]: 25.71
- Mean body weight of nude mice [3, 5]: 26.14
- Mean body weight of nude mice [3, 6]: 26.13
- Mean body weight of nude mice [3, 7]: 26.29
- Mean body weight of nude mice [3, 8]: 25.69
- Mean body weight of nude mice [3, 9]: 26.44
- Mean body weight of nude mice [3, 10]: 26.00
- Mean body weight of nude mice [3, 11]: 26.45
- Mean body weight of nude mice [3, 12]: 26.55
- Mean body weight of nude mice [3, 13]: 27.11
- Mean body weight of nude mice [3, 14]: 25.49
- Mean body weight of nude mice [3, 15]: 25.38
- Mean body weight of nude mice [3, 16]: 25.15
- Mean body weight of nude mice [3, 17]: 25.35
- Mean body weight of nude mice [3, 18]: 24.46
- Mean body weight of nude mice [3, 19]: 24.84
- Mean body weight of nude mice [3, 20]: 24.67
- Mean body weight of nude mice [3, 21]: 24.87
- Mean body weight of nude mice [3, 22]: 24.79
- Mean body weight of nude mice [3, 23]: 24.83
- Mean body weight of nude mice [3, 25]: 24.41
- Mean body weight of nude mice [3, 24]: 24.65

Compound: Cc1ccc(Nc2nccc(N(C)c3ccc4c(C)n(C)nc4c3)n2)cc1S(N)(=O)=O [Compound A, 5-[[4-[(2,3-dimethyl-2H-indazol-6-yl)methylamino]-2-pyrimidinyl]amino]-2-methylbenzenesulfonamide]
- Mean body weight of nude mice ([3]; group 2: Compound A 100 mg/kg PO BID, study day 0): 24.98
- Mean body weight of nude mice ([3]; group 2: Compound A 100 mg/kg PO BID, study day 3): 25.13
- Mean body weight of nude mice ([3]; group 2: Compound A 100 mg/kg PO BID, study day 7): 25.63
- Mean body weight of nude mice ([3]; group 2: Compound A 100 mg/kg PO BID, study day 15): 24.83
- Mean body weight of nude mice ([3]; group 2: Compound A 100 mg/kg PO BID, study day 18): 25.35
- Mean body weight of nude mice ([3]; group 2: Compound A 100 mg/kg PO BID, study day 22): 24.71
- Mean body weight of nude mice ([3]; group 2: Compound A 100 mg/kg PO BID, study day 25): 24.79
- Mean body weight of nude mice ([3]; group 2: Compound A 100 mg/kg PO BID, study day 28): 24.91
- Mean body weight of nude mice ([3]; group 2: Compound A 100 mg/kg PO BID, study day 35): 24.95
- Mean body weight of nude mice ([3]; group 2: Compound A 100 mg/kg PO BID, study day 37): 25.00
